This is an account of results in patent EP3322687B1, “2-BENZYL-INDANONE COMPOUNDS AS ANTICANCER AGENT AND A PROCESS FOR PREPARATION THEREOF” (Council of Scientific and Industrial Research, priority 2015, dated 2017).

“And” between values parts separate entries of the source, which are not always exact repeats. Equal entries are not always repeated. Where two headings read alike, the source gives them in different places.

The subject of one data set is Ehrlich Tumor (solid). In kind it is in vivo, Swiss mice. The procedure: Ehrlich ascites carcinoma (EAC) cells were collected from the peritoneal cavity of the Swiss mice harbouring 8-10 days old ascitic tumor. 1x10^7 EAC cells were injected intramuscularly in right thigh of Swiss male mice selected for the experiment on day 0. The next day, animals were randomized and divided into different groups. Two treatment groups contained 7 animals each and one control group contained 10 animals. The first treatment group was given compound 2 (20 mg/kg i/p) from day 1-9. The second treatment group was treated with 5-fluorouracil (22 mg/kg, i.p) from day 1-9 and it served as positive control. The control group was similarly administered normal saline (0.2 ml, i.p.) from day 1-9. On day 9 & 13, tumor bearing thigh of each animal was shaved and longest and shortest diameters of the tumor were measured with the help of vernier caliper. Tumor weight of each animal was calculated using the following formula. Tumor weight (mg) = (Length(mm) × ([width(mm)])^2)/(2) [formula]
The percent tumor growth inhibition was calculated on day 13 by comparing the average values of treated groups with that of control group. Tumor growth in saline treated control animals was taken to be 100%. Table 6. In-vivo anticancer activity of 2 against Ehrlich ascites carcinoma (solid)

The subject of data set [1] is Ehrlich Ascites Carcinoma (EAC). In kind it is in vivo, Swiss mice. Conditions: for % Tumor cell growth: 20 mg/kg i/p day 1-9, Day 12, control = 100; for Mortality: 20 mg/kg i/p day 1-9, Day 12, dead/total animals. How it is done: Ehrlich ascites carcinoma (EAC) cells were collected from the peritoneal cavity of the Swiss mice harbouring 8-10 days old ascitic tumor. 1x10^7 EAC cells were injected intraperitoneally in Swiss mice selected for the experiment on day 0. The next day, animals were randomized and divided into different groups. The treatment groups contained 7 animals each and control group contained 10 animals. The treatment group was treated with 20 mg/kg of Compound 2 intra-peritoneally from day 1-9. One more of the treatment group received 5-fluorouracil (20 mg/kg, i.p) and it served as positive control. The tumor bearing control group was similarly administered normal saline (0.2 ml, i.p.). On day 12, animals were sacrificed and ascitic fluid was collected from peritoneal cavity of each mouse for the evaluation of tumor growth. Percent tumor growth inhibition was calculated based on the total number of tumor cells present in the peritoneal cavity as on day 12 of the experiment using the following formula. Percent tumor growth inhibition = (Av.no.of cells in control group−Av.no.of cells in treated group)/(Av.no.of cells in control group) × 100 [formula]

The test system of the next data set is THP-1 (Leukemia). The data set can be described thus: Sulforhodamine B cytotoxicity assay. The settings on record: Homo sapiens, THP-1; for IC50: SRB, 48 hours incubation, read-out: Human cancer cell lines IC50 THP-1 (Leukemia). In kind it is cell-based. The procedure:
(§1) The benzyl compounds were evaluated by Sulforhodamine B Assay as per reported method [Skehan etal., J. Natl. Cancer Inst.1990, 82, 1107]. The human cancer cell lines procured from National Cancer Institute, Frederick, U. S. A. were used in present study. Cells were grown in tissue culture flasks in complete growth medium (RPMI-1640 medium with 2 mM glutamine, pH 7.4 supplemented with 10% fetal bovine serum, 100 µg/ml streptomycin and 100 units/ml penicillin) in a carbon dioxide incubator (37°C, 5% CO2, 90% RH). The cells at subconfluent stage were harvested from the flask by treatment with trypsin (0.05% in PBS (pH 7.4) containing 0.02% EDTA). Cells with viability of more than 98%, as determined by trypan blue exclusion, were used for determination of cytotoxicity. The cell suspension required concentration of cells was prepared in complete growth medium. Stock solution of 2x10^-2 M of compounds were prepared in DMSO and further dilution was carried out complete growth medium containing 50µg/ml of gentamycin to obtained working test solution of required concentration. In vitro cytotoxicity against various human cancer cell lines was determined using 96-well cell culture plates. The 100µl of cell suspension was added to each well of the 96-well cell culture plates. The cells were allowed to grow in CO2 incubator (37°C, 5% CO2, 90% RH) for 24 hours. The test materials in complete growth medium (100 µl) were added after 24 hours incubation to the wells containing cell suspension. The plates were further incubated for 48 hours (37°C in an atmosphere of 5% CO2 and 90% relative humidity) in a carbon dioxide incubator after addition of test material and then the cell growth was stopped by gently layering trichloroacetic acid (50% TCA, 50 µl) on top of the medium in all the wells. The plates were incubated at 4°C for one hour to fix the cells attached to the bottom of the wells. The liquid of all the wells was gently pipetted out and discarded. The plates were washed five times with distilled water to remove TCA, growth medium low molecular weight metabolites, serum proteins etc. and air - dried. Cell growth was measured by staining with sulforhodamine B dye. The adsorbed dye was dissolved in Tris-HCl Buffer (100 µl/well, 0.01M, pH 10.4) and plates were gently stirred for 10 minutes on a mechanical stirrer. The optical density (OD) was recorded on ELISA reader at 540nm. Paclitaxel (Taxol), and 5-Fluorouracil were used as positive controls (Standard drugs).
In general terms: Sulforhodamine B stains cellular protein and so reports cell mass.

The subject of a further data set is Hela (Cervix). The data set can be described thus: Sulforhodamine B cytotoxicity assay. In kind it is cell-based. The settings on record: Homo sapiens, Concentration 20 µM. How it is done: as §1
The subject of the next data set is MCF-7 (Breast cancer). The data set can be described thus: Sulforhodamine B cytotoxicity assay. In kind it is cell-based. The settings on record: Homo sapiens, MCF7; for IC50: SRB, 48 hours incubation, read-out: Human cancer cell lines IC50 MCF-7 (Breast cancer). How it is done: as §1
The next data set has as its system HCT-116 (Colon). In words: Sulforhodamine B cytotoxicity assay. The settings on record: Homo sapiens, HCT-116; for IC50: SRB, 48 hours incubation, read-out: Human cancer cell lines IC50 HCT-116 (Colon). In kind it is cell-based. The procedure: as §1
Another data set concerns A549 (Lung). The data set can be described thus: Sulforhodamine B cytotoxicity assay. Conditions: Homo sapiens, A549; for IC50: SRB, 48 hours incubation, read-out: Human cancer cell lines IC50 A549 (Lung). In kind it is cell-based. How it is done: as §1
The next data set relates to T-47D (Breast cancer). In words: Sulforhodamine B cytotoxicity assay. In kind it is cell-based. Conditions: Homo sapiens, T47D; for IC50: SRB, 48 hours incubation, read-out: Human cancer cell lines IC50 T-47D (Breast cancer). The procedure: as §1
In another data set the test system is tubulin protein. In kind it is biochemical. The settings on record: read-out: Tubulin polymerisation inhibition IC50. How it is done:
The tubulin polymerization experiment was performed using 'assay kit'(Cytoskeleton USA) following manufacturer's protocol based on the procedure described by of Shelanski et al, (1973) and Lee et al. (1977). Briefly, tubulin protein (3mg/mL) in tubulin polymerization buffer (80 mM PIPES, pH 6.9, 2 mM MgCl2, 0.5 mM EGTA, 1 mM GTP and 15% glycerol) was placed in prewarmed 96-well microtiter plates at 37° C in the presence of test compounds with variable concentrations. All samples were mixed well and polymerization was monitored kinetically at 340 nm every min for 1h using a Spectramax plate reader. The IC50 value was determined from dose-dependent analysis and is defined as the concentration that inhibits the rate of polymerization by 50%. Podophyllotoxin was used as standard tubulin polymerisation inhibitor as positive control.

As for `O=c1[nH]cc(F)c(=O)[nH]1` [5-Fluorouracil], in the data set on Ehrlich Tumor (solid) (22 mg /Kg i/p day 1-9, Day 13), the “Day 13 Av. Tumor weights” value amounted to 842.85 ± 129.92 mg. The “%Tumor Growth Inhibition” value in the data set with Ehrlich Tumor (solid) (22 mg /Kg i/p day 1-9, day 13) was 59.07%; in data set [1] (20 mg/kg i/p day 1-9, Day 12), 95.4%. Besides, the Mortality in the data set with Ehrlich Tumor (solid) (22 mg /Kg i/p day 1-9, dead/total animals) is on record as 0/7; in data set [1], 0/7. Moreover, the “Av, Volume of ascitic fluid” value in data set [1] (20 mg/kg i/p day 1-9, Day 12) was determined as 0.7 mL. In addition, the “Av. No. of tumor cells” value in data set [1] (20 mg/kg i/p day 1-9, Day 12) is on record as 6.33 x 10^7. Besides, in data set [1] (20 mg/kg i/p day 1-9, Day 12), the “Av. Weight of ascitic fluid” value is 0.46 g. Further, the “% Tumor cell growth” value in data set [1] is 4.6%. In addition, the inhibition at 20 µM in the data set with THP-1 (Leukemia) (Concentration 20 µM) was 90%; with Hela (Cervix), 70%; with MCF-7 (Breast cancer) (Concentration 20 µM) it was 50%; in the data set with HCT-116 (Colon) (Concentration 20 µM), 88%; with A549 (Lung) (Concentration 20 µM) it was 54%; in the data set on T-47D (Breast cancer) (Concentration 20 µM), 60%.
For `COc1cc(C2c3c(cc(OC)c(OC)c3OC)C(=O)C2Cc2ccc(F)cc2)cc(OC)c1OC` (centres unmarked) [Compound 4, 2-(4"-fluorobenzyl)-3-(3',4',5'-trimethoxyphenyl)-4,5,6-trimethoxy-indan-1-one], the IC50 in the data set on THP-1 (Leukemia) was 55 µM; with MCF-7 (Breast cancer) it was 45 µM; with HCT-116 (Colon), 22 µM; in the data set on A549 (Lung) it was 24 µM; in the data set with T-47D (Breast cancer), 36 µM.
As to `COc1ccc(CC2C(=O)c3cc(OC)c(OC)c(OC)c3C2c2cc(OC)c(OC)c(OC)c2)c(OC)c1` (centres unmarked) [Compound 5, 2-(2",4"-dimethoxybenzyl)-3-(3',4',5'-trimethoxyphenyl)-4,5,6-trimethoxy-indan-1-one], the IC50 with THP-1 (Leukemia) was found to be 1 µM; in the data set on MCF-7 (Breast cancer), 12 µM; in the data set with HCT-116 (Colon), 4 µM; in the data set on A549 (Lung), 1 µM; in the data set with T-47D (Breast cancer) it was 12 µM.
In the case of `COc1cc(C2C(=Cc3ccc4c(c3)OCO4)C(=O)c3cc(OC)c(OC)c(OC)c32)cc(OC)c1OC` (centres unmarked) [Compound 12, 2-benzo[1,3]dioxo-5-ylmethylene-4,5,6-trimethoxy-3-(3,4,5-trimethoxyphenyl)-indan-1-one], in the data set with Ehrlich Tumor (solid) (20 mg/kg i/p day 1-9, Day 13), the “Day 13 Av. Tumor weights” value was 1319.64 ± 56.46 mg. Moreover, the “%Tumor Growth Inhibition” value is 35.9% and 35.91% in the data set on Ehrlich Tumor (solid) (20 mg/kg i/p day 1-9, day 13); 45.5% and 45.48% in data set [1] (20 mg/kg i/p day 1-9, Day 12). Also, the Mortality with Ehrlich Tumor (solid) (20 mg/kg i/p day 1-9, dead/total animals) was 0/7; in data set [1] it was 0/7. For the same compound, in the data set with Ehrlich Tumor (solid) (20 mg/kg i/p day 1-9, male Swiss mice, Day 13), the “Day 13 Av. Body weights” value is reported as 23.71 g. Also, the “Av. Body weights (g) of animals on days 1” value in the data set on Ehrlich Tumor (solid) (20 mg/kg i/p day 1-9, male Swiss mice, day 1) turned out to be 21.42 g. Moreover, the IC50 with tubulin protein (tubulin 3mg/mL, 37° C, 340 nm, 1h) was 0.63 µM; in the data set on THP-1 (Leukemia), 4.9 µM; with MCF-7 (Breast cancer), 0.01 µM; in the data set on HCT-116 (Colon), 0.1 µM; with A549 (Lung), 11 µM. Further, the “Av, Volume of ascitic fluid” value in data set [1] (20 mg/kg i/p day 1-9, Day 12) worked out at 6.11 mL. In addition, the “Av. Weight of ascitic fluid” value in [1] (20 mg/kg i/p day 1-9, Day 12) is 5.88 g. Further, the “% Tumor cell growth” value in data set [1] stood at 54.52%. Further, the “Body weight Day 1” value in data set [1] (20 mg/kg i/p day 1-9, EAC-bearing female Swiss mice, Day 1) was determined as 21.42 g. Also, the “Body weight Day 5” value in [1] (20 mg/kg i/p day 1-9, EAC-bearing female Swiss mice, Day 5) worked out at 22.85 g. Also, the “Body weight Day 9” value in [1] (20 mg/kg i/p day 1-9, EAC-bearing female Swiss mice, Day 9) worked out at 22.42 g. Also, the “Body weight Day 12” value in data set [1] (20 mg/kg i/p day 1-9, EAC-bearing female Swiss mice, Day 12) is reported as 23.16 g.
Turning to `CC(=O)O[C@H]1C(=O)[C@@]2(C)[C@H]([C@H](OC(=O)c3ccccc3)[C@]3(O)C[C@H](OC(=O)[C@H](O)[C@@H](NC(=O)c4ccccc4)c4ccccc4)C(C)=C1C3(C)C)[C@]1(OC(C)=O)CO[C@@H]1C[C@@H]2O` [Paclitaxel, reference compound], the inhibition at 1 µM stood at 60% in the data set on THP-1 (Leukemia) (Concentration 1 µM); 77% in the data set on MCF-7 (Breast cancer) (Concentration 1 µM); 45% in the data set on HCT-116 (Colon) (Concentration 1 µM); 88% in the data set on A549 (Lung) (Concentration 1 µM); 78% in the data set on T-47D (Breast cancer) (Concentration 1 µM).
In the case of `COc1cc([C@@H]2c3cc4c(cc3[C@H](O)[C@H]3COC(=O)[C@H]23)OCO4)cc(OC)c1OC` [Podophyllotoxin], in the data set on tubulin protein, the half-maximal inhibitory concentration (IC50) is […].

One may read the inhibition as the share of the control response that was lost under treatment. What is called IC50 is the concentration that gives 50% inhibition.
